{"source": "paper PMC9352670", "about": "(2022)", "tested_on": "Dm-HS-1 TTC ∆ s.c. (DNA, aptamer, no side-chain at 22 (codon 2 TTC); others as HFNAP: fluorophenyl at 19; allylamine at 25, 37; alcohol at 28, 34, 49; phenol at 31, 46; cyclopentyl at 40; cyclopropyl at 43, 58; imidazole at 52, 55, 61) GAAAGCAGGACTGGAGATCGATTCTGGTGCTGTTGATCTCCGCCATTGTGCTCCTACCCTTCACAGACCGAACTAGAGCTT", "assay": "microscale thermophoresis", "conditions": "5 mM KCl, 1 mM MgCl2, 1 mM CaCl2 added to HBS-P+; HBS-P+ buffer, 25 °C", "data": [{"smiles": "COc1cccc2c1C(=O)c1c(O)c3c(c(O)c1C2=O)C[C@@](O)(C(C)=O)C[C@@H]3O[C@H]1C[C@H](N)[C@H](O)[C@H](C)O1", "values": [{"measurement": "Kd", "result": "16.2 ± 3.2", "unit": "nM"}]}]}
